Experimental data taken from ChEMBL document CHEMBL1142017, “Structure-activity relationships and sub-type selectivity in an oxabicyclic estrogen receptor alpha/beta agonist scaffold” (Bioorg Med Chem Lett, 2005).

Legend:
[1] = target: T1, Estrogen receptor beta (Homo sapiens, UniProt Q92731)
Description: (§1) In vitro agonist activity for estrogen receptor beta expressed in COS-1 cells

[2] = target: T2, Estrogen receptor (Homo sapiens, UniProt P03372)
T2 sequence (P03372 whole entry): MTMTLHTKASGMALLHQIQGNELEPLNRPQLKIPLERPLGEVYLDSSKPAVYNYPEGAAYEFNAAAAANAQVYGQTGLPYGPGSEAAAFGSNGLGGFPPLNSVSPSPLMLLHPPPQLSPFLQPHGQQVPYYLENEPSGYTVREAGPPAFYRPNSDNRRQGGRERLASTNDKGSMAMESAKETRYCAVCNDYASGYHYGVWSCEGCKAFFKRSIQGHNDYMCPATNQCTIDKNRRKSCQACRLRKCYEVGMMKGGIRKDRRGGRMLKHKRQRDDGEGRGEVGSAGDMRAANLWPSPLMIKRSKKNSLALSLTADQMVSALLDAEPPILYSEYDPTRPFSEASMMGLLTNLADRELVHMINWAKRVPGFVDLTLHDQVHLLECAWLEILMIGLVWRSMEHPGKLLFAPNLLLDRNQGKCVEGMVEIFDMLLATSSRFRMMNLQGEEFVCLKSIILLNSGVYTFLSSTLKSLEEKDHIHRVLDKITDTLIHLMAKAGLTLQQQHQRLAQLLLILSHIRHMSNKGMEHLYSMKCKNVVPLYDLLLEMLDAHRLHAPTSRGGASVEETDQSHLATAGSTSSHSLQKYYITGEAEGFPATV
Description: In vitro agonist activity for estrogen receptor alpha expressed in COS-1 cells

[3] = target: T3, Estrogen receptor (Rattus norvegicus) (UniProt P06211+Q62986); assay: Effect on uterine wet weight in ovariectomized female rats after 30 mg/kg oral gavage dose; assay type: functional, organism-based; parameters: dose 30 mg/kg
[4] = target: T3, Estrogen receptor (Rattus norvegicus); assay: Effect on uterine wet weight in ovariectomized female rats; assay type: functional
[5] = target: T1, Estrogen receptor beta; conditions: cos-1
Description: as §1

T1 sequence (Q92731 whole entry): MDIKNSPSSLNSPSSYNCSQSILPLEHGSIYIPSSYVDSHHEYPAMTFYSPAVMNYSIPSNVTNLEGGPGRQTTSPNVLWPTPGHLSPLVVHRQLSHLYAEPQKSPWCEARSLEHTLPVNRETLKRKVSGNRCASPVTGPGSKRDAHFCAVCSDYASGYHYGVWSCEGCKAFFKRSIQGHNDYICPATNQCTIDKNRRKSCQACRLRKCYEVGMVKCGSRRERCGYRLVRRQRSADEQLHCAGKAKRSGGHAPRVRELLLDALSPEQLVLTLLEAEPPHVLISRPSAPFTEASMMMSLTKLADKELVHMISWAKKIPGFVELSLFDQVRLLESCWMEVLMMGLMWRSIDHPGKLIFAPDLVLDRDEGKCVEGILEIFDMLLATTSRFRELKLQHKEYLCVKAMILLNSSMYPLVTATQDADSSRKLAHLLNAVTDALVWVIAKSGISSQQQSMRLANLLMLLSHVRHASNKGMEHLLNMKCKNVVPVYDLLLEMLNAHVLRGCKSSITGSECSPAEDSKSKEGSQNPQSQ

CC1=CC[C@@]2(CO)CO[C@@H](c3ccc(O)c(O)c3)[C@@H]1C2 (racemic)
EC50 [1]: 3160 nM | EC50 [2]: 2410 nM

CC1=CC[C@@H]2C[C@H]1[C@H](c1ccc(O)cc1)OC2(C)C (stereo in doubt; (+)-31)
EC50 [1]: 418 nM | EC50 [2]: 203 nM

CC1=CC[C@@]2(CO)CO[C@@H](c3ccc(O)cc3F)[C@@H]1C2 (stereo in doubt; (+)-29)
EC50 [1]: 180 nM | EC50 [2]: 21 nM

CC1=CC[C@@H]2C[C@H]1[C@H](c1ccc(O)c(C)c1)OC2(C)C (stereo in doubt; (+)-32)
EC50 [1]: 318 nM | EC50 [2]: 143 nM

CC1=CC(C)(C)[C@@]2(O)CO[C@@H](c3ccc(O)cc3)[C@@H]1C2 (racemic)
EC50 [1]: 183 nM | EC50 [2]: 141 nM

CC1=CC[C@@]2(CO)CO[C@@H](c3ccc(O)cc3Cl)[C@@H]1C2 (racemic)
EC50 [1]: 5.3 nM | EC50 [2]: 11 nM

C[C@]12CC[C@@H]3c4ccc(OS(=O)(=O)O)cc4CC[C@H]3[C@@H]1CCC2=O
ED50 [3]: 0.16 mg/kg/day

CC1=CC[C@]2(O)C[C@H]1[C@H](c1ccc(O)cc1F)OC2(C)C (racemic)
EC50 [1]: 1.4 nM | EC50 [2]: 1.1 nM

CC1=CC[C@@]2(CO)CO[C@@H](c3ccc(O)c(Br)c3)[C@@H]1C2 (racemic)
EC50 [1]: 485 nM | EC50 [2]: 336 nM

CC1=CC[C@@]2(CO)CO[C@@H](c3ccc(O)cc3Cl)[C@]1(C)C2 (racemic)
EC50 [1]: 67 nM | EC50 [2]: 43 nM

CC1=CC(C)(C)[C@@]2(O)CO[C@@H](c3ccc(O)cc3Cl)[C@@H]1C2 (racemic)
EC50 [1]: 25 nM | EC50 [2]: 21 nM

CC1=CC[C@@]2(CO)CO[C@@H](c3ccc(O)cc3C)[C@@H]1C2 (racemic)
EC50 [1]: 79 nM | EC50 [2]: 92 nM

CC1=CC[C@@]2(CO)CO[C@@H](c3ccc(O)cc3Cl)[C@@H]1C2 (stereo in doubt; (-)-26) [listing 1 of 2 here]
ED50 [4]: 3.44 mg/kg/day

CC1=CC[C@@H]2C[C@H]1[C@H](c1ccc(O)c(C)c1)OC2(C)C (stereo in doubt)
EC50 [2]: 218 nM | EC50 [5]: 318 nM

CC1=CC[C@@]2(CO)CO[C@@H](c3ccc(O)c(F)c3)[C@@H]1C2 (racemic)
EC50 [1]: 25 nM | EC50 [2]: 4.6 nM

CC1=CC[C@@H]2C[C@H]1[C@H](c1ccc(O)cc1)OC2(C)C (stereo in doubt)
EC50 [1]: 195 nM | EC50 [2]: 211 nM

CC1=CC[C@@]2(CO)CO[C@@H](c3cc(C)c(O)c(C)c3)[C@@H]1C2 (racemic)
EC50 [1]: 2830 nM | EC50 [2]: 743 nM

CC1=CC[C@@]2(CO)CO[C@@H](c3ccc(O)cc3O)[C@@H]1C2 (racemic)
EC50 [1]: 275 nM | EC50 [2]: 173 nM

CC1=CC[C@@]2(CO)CO[C@@H](c3ccc(O)c(F)c3)[C@]1(C)C2 (racemic)
EC50 [1]: 6 nM | EC50 [2]: 68 nM

CC1=CC[C@]2(O)C[C@H]1[C@H](c1ccc(O)c(F)c1)OC2(C)C (racemic)
EC50 [1]: 7.2 nM | EC50 [2]: 0.6 nM

CC1=CC[C@@]2(CO)CO[C@@H](c3ccc(O)c(Cl)c3)[C@@H]1C2 (racemic)
EC50 [1]: 197 nM | EC50 [2]: 36 nM

CC1=CC[C@@]2(CO)CO[C@@H](c3ccc(O)cc3)[C@]1(C)C2 (racemic)
EC50 [1]: 39 nM | EC50 [2]: 203 nM

CC1=CC[C@@]2(CO)CO[C@@H](c3ccc(O)c(C)c3)[C@@H]1C2 (racemic)
EC50 [1]: 305 nM | EC50 [2]: 137 nM

COc1cc([C@@H]2OC[C@]3(CO)CC=C(C)[C@H]2C3)ccc1O (racemic)
EC50 [1]: 3050 nM | EC50 [2]: 1980 nM

CC1=CC[C@@]2(CO)CO[C@@H](c3ccc(O)c(F)c3)[C@@H]1C2 (stereo in doubt; (+)-27)
EC50 [1]: 40 nM | EC50 [2]: 2.6 nM

CC1=CC[C@@]2(CO)CO[C@@H](c3ccc(O)cc3Cl)[C@@H]1C2 (stereo in doubt; (-)-26) [listing 2 of 2 here]
EC50 [1]: 6.1 nM | EC50 [2]: 18 nM

CC1=CC[C@@]2(O)CO[C@@H](c3ccc(O)cc3)[C@@H]1C2(C)C (racemic)
EC50 [1]: 24 nM | EC50 [2]: 59 nM

CC1=CC[C@]2(O)C[C@H]1[C@H](c1ccc(O)cc1Cl)OC2(C)C (racemic)
EC50 [1]: 6 nM | EC50 [2]: 1 nM

CC1=CC[C@@]2(CO)CO[C@@H](c3ccc(O)c(F)c3)[C@@H]1C2 (stereo in doubt; (-)-28)
EC50 [1]: 57 nM | EC50 [2]: 254 nM

CC1=CC[C@@]2(CO)CO[C@@H](c3ccc(O)cc3F)[C@@H]1C2 (stereo in doubt; (-)-30)
EC50 [1]: 3.1 nM | EC50 [2]: 19 nM

CC1=CC[C@@]2(CO)CO[C@@H](c3ccc(O)cc3Cl)[C@@H]1C2 (stereo in doubt; (+)-25)
EC50 [1]: 46 nM | EC50 [2]: 138 nM

CC1=CC[C@@]2(CO)CO[C@@H](c3ccc(O)cc3F)[C@@H]1C2 (racemic)
EC50 [1]: 10 nM | EC50 [2]: 39 nM

CC1=CC[C@@]2(CO)CO[C@@H](c3ccc(O)cc3F)[C@]1(C)C2 (racemic)
EC50 [1]: 12 nM | EC50 [2]: 50 nM

CC1=CC[C@]2(O)C[C@H]1[C@H](c1ccc(O)cc1)OC2(C)C (racemic)
EC50 [1]: 9.2 nM | EC50 [2]: 1.6 nM
